Reference: BindingDB's records for doi:10.1021/jm991119p (The Institute of Cancer Research, 2000)

Target: reduced folate carrier 1 (Mus musculus)
Test: Affinity towards RFC (Reduced folate carrier) measured by the inhibition of [3H]MTX uptake

Ki: 200 µM
SMILES: C#CCN(Cc1cc2c(=O)[nH]c(C)nc2cc1C)c1ccc(C(=O)N[C@@H](CCC(=O)N[C@H](CCC(=O)O)C(=O)O)C(=O)O)cc1
